Data as given in publication PMC10518421, “Zebrafish as model system for the biological characterization of CK1 inhibitors” (Frontiers in Pharmacology, 2023).
Entries after “also recorded” stand apart in the source; their conditions may differ. Where two headings read alike, the source gives them in different places.

What was measured:
[1] = tested on: CK1δ; conditions: prior to standardization, cited from earlier work
[2] = tested on: zebrafish embryos; conditions: for phenotype of treated zebrafish embryos: 24 to 72 hpf (48 h); for dose dependence of phenotype: 5, 10, 20 and 40 µM
Method: The TüAB wildtype strain was used for all experiments. […] Zebrafish embryos were dechorionated at 24 h post fertilization (hpf) and treated with the respective concentration of inhibitor, dissolved in DMSO (Sigma-Aldrich, Stadt, Land) and diluted in E3 medium (5 mM NaCl, 0.17 mM KCl, 0.33 mM CaCl2, 0.33 mM MgSO4, 0.6 µM Methylene Blue dissolved in water). DMSO served as solvent control. Embryos were treated from 24 hpf until 72 hpf, the compound solution was renewed daily. Pictures and movies were recorded at 48 and 72 hpf. […] Pictures were taken on an Olympus stereo microscope SZX16 and movies were recorded on an inverse Leica stereo microscope DM IL LED Fluo equipped with a FLEXACAM C1.
Embryos were dechorionated at 24 hpf and treated with 20 µM of the respective inhibitor (Figure 6A).

[3] = target: T1, GST-CK1ε (Homo sapiens, UniProt P49674); assay: in vitro kinase assay, α-casein phosphorylation with [γ-32P]-ATP, standard conditions; type: biochemical; conditions: 20 µM inhibitor, normalized to DMSO control
T1 construct: made in house; host or cells: E. coli Rosetta 2 (DE3)
Method: (§1) Each in vitro kinase reaction was performed in a total volume of 15 µL containing 25 mM Tris-HCl (pH 7.0), 10 mM MgCl2, 100 µM EDTA, 2.8 µM of the substrate α-casein and 0.4 pmol [γ-^32P]-ATP at 30°C. […] Reactions were stopped by adding 3 µL of 5x SDS loading buffer and incubating at 95°C for 5 min. Proteins were separated by SDS-PAGE and stained with Coomassie Brilliant Blue R250 (Waldeck GmbH & Co. KG, Muenster, Germany). Autoradiography visualized the incorporation of radioactively labelled γ-phosphate into the proteins. A quantitative analysis of the radioactive signal was performed by excising the proteins from dried gels and measuring phosphate incorporation via Cherenkov counting (Beckmann Scintillation Counter). For the determination of the initial velocity region, a linear regression was performed. Thereby, the number of included data-points was decreased stepwise, and the point of time with the highest maximum coefficient of determination (R ^2) was chosen as the kinase-specific standard reaction time. For determination of the maximal velocity (Vmax) and Michaelis constant (Km) of ATP, various ATP concentrations in a range from 0.5 to 250 µM were tested. Raw data was used for the calculation of enzyme velocity (V) in [pmol/min]. Then, V was plotted over substrate (ATP) concentration and fitted to the Michaelis-Menten model via GraphPad Prism 8 (GraphPad Software, La Jolla, CA, United States). According to the Michaelis-Menten curve, Km, which is the concentration of the substrate, that is needed to obtain half Vmax, was calculated. For determination of IC50 values, the scintillation data measured in cpm was transformed to pmol of transferred phosphate. The data was then transformed logarithmically (X = log(X)), normalized to DMSO (100%) and zero (0%) before fitting to sigmoidal dose-response curves with variable slope with nonlinear regression using GraphPad Prism 7.
(§2) In compliance with the established standard conditions the kinase assays were performed in the presence of 20 µM of the respective inhibitor (Figure 7).

[4] = target: T2, His-DrCK1δB (Danio rerio, UniProt Q6P3K7); assay: as above; type: biochemical, zebrafish (Danio rerio); conditions: for mean residual kinase activity ± SD: 20 µM inhibitor, normalized to DMSO control
T2 construct: made in house; host or cells: E. coli Rosetta 2 (DE3)
T2 sequence (Q6P3K7 1-409): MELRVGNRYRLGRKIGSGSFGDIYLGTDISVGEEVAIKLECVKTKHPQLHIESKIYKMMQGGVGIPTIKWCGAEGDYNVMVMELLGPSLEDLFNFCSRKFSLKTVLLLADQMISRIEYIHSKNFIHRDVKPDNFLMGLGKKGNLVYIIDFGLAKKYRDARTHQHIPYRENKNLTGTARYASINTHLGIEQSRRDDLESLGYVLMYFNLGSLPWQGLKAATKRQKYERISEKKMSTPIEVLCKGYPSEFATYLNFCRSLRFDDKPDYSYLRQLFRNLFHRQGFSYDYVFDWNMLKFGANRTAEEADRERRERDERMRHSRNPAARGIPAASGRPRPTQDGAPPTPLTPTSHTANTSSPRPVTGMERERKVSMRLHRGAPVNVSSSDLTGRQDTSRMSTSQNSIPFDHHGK
Method: as §1, §2
(§3) Next, in vitro kinase assays were performed in absence and presence of the respective SMI at different concentrations (ranging from 13 to 26667 nM). The kinase activity of the inhibitor-treated samples was normalized to the DMSO-control and plotted against the inhibitor concentration (Figure 10).

[5] = target: T3, His-DrCK1δA (Danio rerio, UniProt Q7T2E3); assay: as above; type: biochemical, zebrafish (Danio rerio); conditions: for mean residual kinase activity ± SD: 20 µM inhibitor, normalized to DMSO control
T3 construct: made in house; host or cells: E. coli Rosetta 2 (DE3)
T3 sequence (Q7T2E3 1-403): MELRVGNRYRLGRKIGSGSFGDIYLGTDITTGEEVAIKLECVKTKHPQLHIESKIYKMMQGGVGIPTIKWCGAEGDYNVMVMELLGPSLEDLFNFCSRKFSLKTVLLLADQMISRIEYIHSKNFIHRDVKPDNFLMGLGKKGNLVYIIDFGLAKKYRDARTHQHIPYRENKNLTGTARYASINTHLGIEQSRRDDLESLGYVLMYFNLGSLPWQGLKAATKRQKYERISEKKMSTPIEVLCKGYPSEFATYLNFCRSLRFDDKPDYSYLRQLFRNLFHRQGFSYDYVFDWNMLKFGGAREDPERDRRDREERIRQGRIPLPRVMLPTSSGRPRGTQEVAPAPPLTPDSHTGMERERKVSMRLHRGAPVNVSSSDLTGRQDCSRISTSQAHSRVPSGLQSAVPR
Method: as §1, §2, §3

[6] = tested on: His-DrCK1ε; assay: as above; type: biochemical, zebrafish (Danio rerio); conditions: 20 µM inhibitor, normalized to DMSO control
Method: as §1, §2

[7] = target: CK1ε (Homo sapiens, UniProt P49674); assay: initial IC50 determination in in vitro kinase assays, prior to standardization; type: biochemical; conditions: marked * not published, read-out: IC50 values CK1ε
Method: (§4) The SMIs used in this study (summarized in Supplementary Table S2) were selected based on their inhibitory capacity toward CK1δ in vitro, whereby a broad range of inhibitors with varying efficiency were included. The determination of IC50-values was conducted prior to the standardization workflow establishment. Zebrafish embryos treated with 20 µM of the respective compound were phenotypically analyzed.
(§5) Supplementary Table 6: List of the inhibitors that were selected for the in vivo screening of zebrafish embryonic development. The compounds were selected based on their ability to inhibit CK1δ in in vitro kinase assays. The initial IC50-values were determined prior to the establishment of the standardized in vitro kinase assay protocol. The Supplementary Table summarizes, whether the zebrafish embryos presented an abnormal phenotype upon inhibitor treatment. The inhibitors were added to the zebrafish medium in a concentration of 20 µM.

[8] = target: T4, GST-humCK1δ^TV1 (Homo sapiens, UniProt P48730); assay: in vitro kinase assay, α-casein phosphorylation with [γ-32P]-ATP, standard conditions; type: biochemical; conditions: for mean residual kinase activity ± SD: 20 µM inhibitor, normalized to DMSO control
T4 construct: made in house; host or cells: E. coli Rosetta 2 (DE3)
Method: as §1, §2, §3

[9] = target: CK1δ (TV1) (Homo sapiens, UniProt P48730); assay: initial IC50 determination in in vitro kinase assays, prior to standardization; type: biochemical; conditions: not published
Method: as §4, §5

[10] = tested on: csnk1db (CK1δB); assay: morpholino knockdown in zebrafish embryos, phenotype; type: in vivo, zebrafish (D. rerio); conditions: 300 µM injected, 72 hpf
Excerpt: The TüAB wildtype strain was used for all experiments. […] DMSO served as solvent control. […] Embryos were immobilized in 2.5% methylcellulose.

[11] = inhibitor 13 to 26667 nM, ATP at Km, normalized to DMSO
[12] = resulting from IC50 (Cheng-Prusoff, ATP at Km)

T4 sequence (P48730 whole entry): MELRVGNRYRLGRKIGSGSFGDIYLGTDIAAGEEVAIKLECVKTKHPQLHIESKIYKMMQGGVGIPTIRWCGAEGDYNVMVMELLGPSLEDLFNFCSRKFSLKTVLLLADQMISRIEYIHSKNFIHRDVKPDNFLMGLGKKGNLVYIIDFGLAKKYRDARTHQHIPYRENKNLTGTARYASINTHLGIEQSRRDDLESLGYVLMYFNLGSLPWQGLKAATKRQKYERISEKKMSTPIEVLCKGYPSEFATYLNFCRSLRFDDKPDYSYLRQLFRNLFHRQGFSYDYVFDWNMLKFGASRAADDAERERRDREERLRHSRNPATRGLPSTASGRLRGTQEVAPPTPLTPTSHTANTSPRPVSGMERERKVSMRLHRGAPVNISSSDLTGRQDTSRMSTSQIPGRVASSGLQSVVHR
Chain of CK1δ (TV1) (P48730 whole entry): as above
T1 sequence (P49674 whole entry): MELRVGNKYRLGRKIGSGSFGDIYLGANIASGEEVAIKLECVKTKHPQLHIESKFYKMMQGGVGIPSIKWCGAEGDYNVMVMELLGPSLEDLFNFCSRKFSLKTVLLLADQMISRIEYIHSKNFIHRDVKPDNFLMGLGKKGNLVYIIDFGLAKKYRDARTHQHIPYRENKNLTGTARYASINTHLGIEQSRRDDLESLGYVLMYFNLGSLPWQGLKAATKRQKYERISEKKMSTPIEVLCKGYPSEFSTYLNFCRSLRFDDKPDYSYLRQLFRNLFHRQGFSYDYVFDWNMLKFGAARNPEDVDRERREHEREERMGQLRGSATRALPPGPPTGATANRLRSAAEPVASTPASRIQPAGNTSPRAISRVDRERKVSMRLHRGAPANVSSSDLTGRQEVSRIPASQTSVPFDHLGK
Chain of CK1ε (P49674 whole entry): as above

O=C(CSc1nc2c(c(=O)n1-c1ccccc1)SCC2)Nc1nc2ccc(C(F)(F)F)cc2s1 [G1-1]
IC50 ([1]; ref García-Reyes et al., 2018): 660 nM
Phenotypic changes ([2]; zebrafish, in vivo): Mild bradycardia
Phenotypic changes (with severity) after treatment of zebrafish embryos with 20 µM inhibitor ([2]; zebrafish, in vivo): Yes (mild)

O=C(CSc1nc2c(c(=O)n1Cc1ccc(C(F)(F)F)cc1)SCC2)Nc1nc2ccc(C(F)(F)F)cc2s1 [G1-3]
IC50 ([1]; ref García-Reyes et al., 2018): 330 nM
Phenotypic changes ([2]; zebrafish, in vivo): None observed
Phenotypic changes (with severity) after treatment of zebrafish embryos with 20 µM inhibitor ([2]; zebrafish, in vivo): No

O=C(CSc1nccc(=O)n1Cc1ccc(C(F)(F)F)cc1)Nc1nc2ccc(C(F)(F)F)cc2s1 [G2-2]
mean residual kinase activity ± SD [3]: 11.9 ± 2.0%
mean residual kinase activity ± SD [4]: 16.1 ± 9.5%
IC50 [4, 11]: 270 nM
Ki [4, 12]: 135 nM
mean residual kinase activity ± SD [5]: 12.1 ± 3.9%
IC50 [5, 11]: 345 nM
Ki [5, 12]: 173 nM
mean residual kinase activity ± SD [6]: 10.5 ± 3.0%
IC50 ([1]; ref Liu et al., 2019): 120 nM
phenotype of treated zebrafish embryos ([2]; 5 µM): cardiac phenotype, with bradycardia and blood congestion
phenotype of treated zebrafish embryos ([2]; 10 µM): did not pump blood; also recorded: reduced heart function; also recorded: blood congestion and pericardial edema
Phenotypic changes (with severity) after treatment of zebrafish embryos with 20 µM inhibitor ([2]; 20 µM in medium, from 24 hpf): Yes (severe)
phenotype of treated zebrafish embryos ([2]; 20 µM): strong cardiac phenotype, with blood congestion, a strong bradycardia and partially total loss of heart beat; also recorded: severe effects on the embryonic development, with strong bradycardia and blood congestion; also recorded: blood congestions; also recorded: pericardial edema
phenotype of treated zebrafish embryos ([2]; 40 µM): dead and highly toxic, and all treated embryos were dead after 48 h of treatment
concentration that induced necrosis ([2]; 48 h of incubation, doses 5, 10, 20 and 40 µM): 40 µM
lethality to embryos ([2]; at concentrations of 20 and 40 μM): lethal
IC50 [7]: 926 nM
mean residual kinase activity ± SD [8]: 8.4 ± 1.1%
IC50 [8, 11]: 503 nM
Ki [8, 12]: 251 nM

COc1ccccc1-n1c(SCC(=O)Nc2nc3ccc(C(F)(F)F)cc3s2)nccc1=O [G2-4, 2-((3-(2-Methoxyphenyl)-4-oxo-3,4-dihydropyrimidin-2-yl)thio)-N-(6-(trifluormethyl)benzo[d]thiazol-2-yl)acetamid]
mean residual kinase activity ± SD [3]: 8.6 ± 1.6%
mean residual kinase activity ± SD [4]: 6.3 ± 0.8%
mean residual kinase activity ± SD [5]: 7.6 ± 1.2%
mean residual kinase activity ± SD [6]: 11.3 ± 3.3%
phenotype of treated zebrafish embryos ([2]; 5 µM): mild phenotype with a minor blood congestion
phenotype of treated zebrafish embryos ([2]; 10 µM): weakly beating ventricle and a pericardial edema
Phenotypic changes (with severity) after treatment of zebrafish embryos with 20 µM inhibitor ([2]; 20 µM in medium, from 24 hpf): Yes (severe)
phenotype of treated zebrafish embryos ([2]; 20 µM): strong cardiac phenotype, with blood congestion, a strong bradycardia and partially total loss of heart beat; also recorded: severe effects on the embryonic development, with strong bradycardia and blood congestion; also recorded: pericardial edema; also recorded: almost not beating
phenotype of treated zebrafish embryos ([2]; 40 µM): bradycardia, a loss of ventricular beating and as a result pericardial edema
dose dependence of phenotype ([2]; 48 h of incubation): increasingly severe cardiac malfunctions with increasing compound concentrations
IC50 [9]: 970 nM
mean residual kinase activity ± SD [8]: 3.2 ± 0.3%

COc1ccc(-n2c(SCC(=O)Nc3nc4ccc(C(F)(F)F)cc4s3)nccc2=O)cc1 [G2-5, 2-((3-(4-Methoxyphenyl)-4-oxo-3,4-dihydropyrimidin-2-yl)thio)-N-(6-(trifluormethyl)benzo[d]thiazol-2-yl)acetamid]
Phenotypic changes (with severity) after treatment of zebrafish embryos with 20 µM inhibitor ([2]; 20 µM in medium, from 24 hpf): No
phenotype of treated zebrafish embryos ([2]; 20 µM): no effect on zebrafish development or heart function; also recorded: did not show a phenotypic effect
IC50 [9]: 840 nM

COc1cccc(-n2c(SCC(=O)Nc3nc4ccc(C(F)(F)F)cc4s3)nccc2=O)c1 [G2-6, 2-((3-(3-Methoxyphenyl)-4-oxo-3,4-dihydropyrimidin-2-yl)thio)-N-(6-(trifluormethyl)benzo[d]thiazol-2-yl)acetamid]
mean residual kinase activity ± SD [3]: 18.0 ± 4.8%
mean residual kinase activity ± SD [4]: 10.0 ± 1.3%
mean residual kinase activity ± SD [5]: 11.9 ± 3.2%
mean residual kinase activity ± SD [6]: 25.5 ± 10.7%
phenotype of treated zebrafish embryos ([2]; 5 µM): cardiac phenotype, with bradycardia and blood congestion, resulting in cardiac edema
phenotype of treated zebrafish embryos ([2]; 10 µM): blood congestion and pericardial edema
Phenotypic changes (with severity) after treatment of zebrafish embryos with 20 µM inhibitor ([2]; 20 µM in medium, from 24 hpf): Yes (severe)
phenotype of treated zebrafish embryos ([2]; 20 µM): strong cardiac phenotype, with blood congestion, a strong bradycardia and partially total loss of heart beat; also recorded: severe effects on the embryonic development, with strong bradycardia and blood congestion; also recorded: blood congestions; also recorded: pericardial edema
phenotype of treated zebrafish embryos ([2]; 40 µM): bradycardia, a loss of ventricular beating and as a result pericardial edema
dose dependence of phenotype ([2]; 48 h of incubation): increasingly severe cardiac malfunctions with increasing compound concentrations
IC50 [9]: 1400 nM
mean residual kinase activity ± SD [8]: 9.1 ± 1.6%

csnk1db morpholino: morpholino-modified antisense oligonucleotide targeting the translational start site of csnk1db, 5′-CTGTTTCCAACTCGTAGCTCCATTG-3′ (all phosphorodiamidate morpholino (PMO))
phenotype of morpholino injected embryos [10]: reduced heart function resulting in blood congestion
phenotype of morpholino injected embryos ([10]; listed as csnk1db): cardiac malfunction; also recorded: slightly curved body axis
phenotype of morpholino injected embryos ([10]; listed as csnk1db Morpholino): reduced heart function
